From the supplement of paper PMC12076712
± gives the standard deviation of the averaged measurements.

Key:
Test in all cases: pIC50, kinobeads binding competition
Conditions in all cases: cell material: Jurkat lysate
UniProt Q9NSY1 = biological target: UniProt Q9NSY1
ILK = biological target: T1, ILK (UniProt Q13418)
T1 sequence (whole entry): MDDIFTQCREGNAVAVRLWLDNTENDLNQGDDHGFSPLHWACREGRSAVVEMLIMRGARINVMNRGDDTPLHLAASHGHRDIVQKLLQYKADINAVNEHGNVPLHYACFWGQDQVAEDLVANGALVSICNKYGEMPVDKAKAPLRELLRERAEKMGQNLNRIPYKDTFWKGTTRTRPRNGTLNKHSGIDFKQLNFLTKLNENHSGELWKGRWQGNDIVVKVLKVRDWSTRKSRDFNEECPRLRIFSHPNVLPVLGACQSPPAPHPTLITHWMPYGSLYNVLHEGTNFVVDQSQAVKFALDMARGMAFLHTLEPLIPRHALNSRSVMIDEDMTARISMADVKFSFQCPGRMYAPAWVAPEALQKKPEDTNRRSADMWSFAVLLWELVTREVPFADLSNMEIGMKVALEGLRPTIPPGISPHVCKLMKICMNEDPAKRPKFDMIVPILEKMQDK

UniProt P52564 = biological target: T2, UniProt P52564
T2 sequence (whole entry): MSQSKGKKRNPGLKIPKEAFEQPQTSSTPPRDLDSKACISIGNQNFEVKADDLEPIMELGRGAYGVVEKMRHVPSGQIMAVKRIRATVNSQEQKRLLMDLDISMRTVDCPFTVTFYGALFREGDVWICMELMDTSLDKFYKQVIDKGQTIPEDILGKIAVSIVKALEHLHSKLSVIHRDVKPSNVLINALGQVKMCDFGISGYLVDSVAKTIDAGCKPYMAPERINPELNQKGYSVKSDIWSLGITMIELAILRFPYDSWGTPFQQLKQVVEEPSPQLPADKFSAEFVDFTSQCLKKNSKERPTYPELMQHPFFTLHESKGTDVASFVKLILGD

PRKCB = PRKCB (UniProt P05771)
UniProt Q8NEB9 = biological target: UniProt Q8NEB9
NEK3 = biological target: T3, NEK3 (UniProt P51956)
T3 sequence (whole entry): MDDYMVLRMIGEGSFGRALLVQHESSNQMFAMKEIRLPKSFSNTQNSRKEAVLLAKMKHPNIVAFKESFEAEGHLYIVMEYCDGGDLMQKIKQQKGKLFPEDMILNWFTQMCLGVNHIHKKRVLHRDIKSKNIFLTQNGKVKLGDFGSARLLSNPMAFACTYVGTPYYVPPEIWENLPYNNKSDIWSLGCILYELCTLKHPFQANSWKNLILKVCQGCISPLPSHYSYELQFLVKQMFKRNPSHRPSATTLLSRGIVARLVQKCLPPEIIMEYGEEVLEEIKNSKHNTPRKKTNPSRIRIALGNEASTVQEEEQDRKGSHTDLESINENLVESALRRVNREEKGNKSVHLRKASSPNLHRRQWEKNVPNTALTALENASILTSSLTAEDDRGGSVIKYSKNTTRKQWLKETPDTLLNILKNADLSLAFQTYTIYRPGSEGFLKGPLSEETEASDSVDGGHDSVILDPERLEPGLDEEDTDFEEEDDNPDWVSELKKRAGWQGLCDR

SRC = SRC (UniProt P12931)
UniProt Q9BUB5 = biological target: UniProt Q9BUB5
TAOK3 = TAOK3 (UniProt Q9H2K8)
UniProt O00444 = biological target: T4, UniProt O00444
T4 sequence (whole entry): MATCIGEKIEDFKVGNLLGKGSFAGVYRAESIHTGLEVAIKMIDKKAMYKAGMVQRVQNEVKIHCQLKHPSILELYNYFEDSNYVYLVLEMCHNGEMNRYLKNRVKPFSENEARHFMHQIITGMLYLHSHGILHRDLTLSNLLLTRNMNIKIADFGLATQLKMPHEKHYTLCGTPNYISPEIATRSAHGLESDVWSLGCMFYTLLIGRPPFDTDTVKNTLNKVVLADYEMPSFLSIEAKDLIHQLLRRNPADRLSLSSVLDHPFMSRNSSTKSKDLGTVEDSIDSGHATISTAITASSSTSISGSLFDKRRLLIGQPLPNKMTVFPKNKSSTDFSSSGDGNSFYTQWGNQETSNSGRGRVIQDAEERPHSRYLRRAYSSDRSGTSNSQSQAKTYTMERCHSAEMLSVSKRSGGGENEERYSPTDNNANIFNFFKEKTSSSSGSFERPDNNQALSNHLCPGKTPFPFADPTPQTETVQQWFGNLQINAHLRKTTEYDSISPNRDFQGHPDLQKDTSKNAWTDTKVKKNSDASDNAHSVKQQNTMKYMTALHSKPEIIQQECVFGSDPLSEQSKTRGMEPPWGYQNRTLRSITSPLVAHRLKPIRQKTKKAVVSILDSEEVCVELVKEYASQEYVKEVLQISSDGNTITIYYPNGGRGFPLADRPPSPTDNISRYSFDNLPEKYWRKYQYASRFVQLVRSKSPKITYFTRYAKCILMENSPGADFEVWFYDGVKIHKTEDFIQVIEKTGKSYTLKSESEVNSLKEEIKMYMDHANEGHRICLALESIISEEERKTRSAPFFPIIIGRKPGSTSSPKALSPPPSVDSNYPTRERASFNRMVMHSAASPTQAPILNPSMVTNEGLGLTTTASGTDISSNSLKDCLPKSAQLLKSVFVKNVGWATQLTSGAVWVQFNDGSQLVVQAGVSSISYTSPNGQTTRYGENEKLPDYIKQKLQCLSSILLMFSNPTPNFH

DDR1 = DDR1 (UniProt Q08345)
DDR1, sequence (Q08345 whole entry): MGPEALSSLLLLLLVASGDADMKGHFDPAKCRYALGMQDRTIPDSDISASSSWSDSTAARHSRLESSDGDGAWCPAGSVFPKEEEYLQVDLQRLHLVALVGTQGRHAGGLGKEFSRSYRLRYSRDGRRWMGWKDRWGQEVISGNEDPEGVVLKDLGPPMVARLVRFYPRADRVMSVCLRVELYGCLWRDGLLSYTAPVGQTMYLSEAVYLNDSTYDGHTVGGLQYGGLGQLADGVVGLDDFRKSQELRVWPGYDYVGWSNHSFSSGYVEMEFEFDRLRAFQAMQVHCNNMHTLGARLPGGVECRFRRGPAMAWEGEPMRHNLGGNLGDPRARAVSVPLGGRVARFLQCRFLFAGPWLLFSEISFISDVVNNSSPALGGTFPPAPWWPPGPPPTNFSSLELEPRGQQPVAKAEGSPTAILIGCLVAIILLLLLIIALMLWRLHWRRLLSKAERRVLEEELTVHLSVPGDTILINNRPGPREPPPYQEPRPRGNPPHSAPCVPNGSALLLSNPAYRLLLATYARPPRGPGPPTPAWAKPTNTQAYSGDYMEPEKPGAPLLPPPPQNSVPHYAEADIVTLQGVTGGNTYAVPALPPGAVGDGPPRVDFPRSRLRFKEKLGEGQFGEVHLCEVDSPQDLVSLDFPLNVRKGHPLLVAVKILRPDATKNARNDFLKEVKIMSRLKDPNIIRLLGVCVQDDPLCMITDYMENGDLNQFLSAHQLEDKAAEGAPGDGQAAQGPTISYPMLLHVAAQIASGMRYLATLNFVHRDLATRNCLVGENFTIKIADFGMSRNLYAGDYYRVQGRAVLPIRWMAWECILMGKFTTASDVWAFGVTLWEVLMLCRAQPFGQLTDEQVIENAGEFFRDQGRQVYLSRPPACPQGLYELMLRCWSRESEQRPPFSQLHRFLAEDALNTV

SRC, sequence (P12931 whole entry, looked up): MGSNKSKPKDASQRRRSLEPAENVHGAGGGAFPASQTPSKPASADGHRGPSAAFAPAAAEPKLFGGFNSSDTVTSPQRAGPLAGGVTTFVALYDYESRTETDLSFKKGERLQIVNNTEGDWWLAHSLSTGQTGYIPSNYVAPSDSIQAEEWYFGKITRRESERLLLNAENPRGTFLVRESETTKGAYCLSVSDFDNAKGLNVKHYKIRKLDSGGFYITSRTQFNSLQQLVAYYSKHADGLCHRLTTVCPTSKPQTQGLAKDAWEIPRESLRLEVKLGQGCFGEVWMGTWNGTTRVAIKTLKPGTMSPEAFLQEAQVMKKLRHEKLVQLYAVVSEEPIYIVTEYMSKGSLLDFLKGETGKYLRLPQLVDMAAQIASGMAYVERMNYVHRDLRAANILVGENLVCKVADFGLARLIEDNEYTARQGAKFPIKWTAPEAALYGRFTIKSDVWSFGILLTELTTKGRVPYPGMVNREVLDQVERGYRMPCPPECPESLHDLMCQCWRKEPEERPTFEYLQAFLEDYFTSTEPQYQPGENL
PRKCB, sequence (P05771 whole entry, looked up): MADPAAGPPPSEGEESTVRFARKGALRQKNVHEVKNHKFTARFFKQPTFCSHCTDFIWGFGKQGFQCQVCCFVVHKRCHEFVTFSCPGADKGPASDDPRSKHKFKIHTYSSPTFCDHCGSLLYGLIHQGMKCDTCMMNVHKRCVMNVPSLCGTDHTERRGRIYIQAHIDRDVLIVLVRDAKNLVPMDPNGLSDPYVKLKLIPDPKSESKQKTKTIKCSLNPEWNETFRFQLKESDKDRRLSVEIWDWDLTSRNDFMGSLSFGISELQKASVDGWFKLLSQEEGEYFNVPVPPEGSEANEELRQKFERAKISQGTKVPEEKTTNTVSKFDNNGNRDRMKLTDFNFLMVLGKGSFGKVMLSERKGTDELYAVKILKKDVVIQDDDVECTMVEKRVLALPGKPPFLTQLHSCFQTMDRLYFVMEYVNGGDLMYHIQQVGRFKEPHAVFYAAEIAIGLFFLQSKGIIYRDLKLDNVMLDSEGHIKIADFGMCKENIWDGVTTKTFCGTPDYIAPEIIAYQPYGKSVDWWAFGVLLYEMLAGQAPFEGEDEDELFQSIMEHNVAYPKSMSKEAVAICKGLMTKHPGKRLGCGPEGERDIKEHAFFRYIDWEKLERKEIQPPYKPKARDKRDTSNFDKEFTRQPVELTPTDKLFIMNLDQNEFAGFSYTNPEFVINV
UniProt Q9BUB5, sequence (Q9BUB5 whole entry, looked up): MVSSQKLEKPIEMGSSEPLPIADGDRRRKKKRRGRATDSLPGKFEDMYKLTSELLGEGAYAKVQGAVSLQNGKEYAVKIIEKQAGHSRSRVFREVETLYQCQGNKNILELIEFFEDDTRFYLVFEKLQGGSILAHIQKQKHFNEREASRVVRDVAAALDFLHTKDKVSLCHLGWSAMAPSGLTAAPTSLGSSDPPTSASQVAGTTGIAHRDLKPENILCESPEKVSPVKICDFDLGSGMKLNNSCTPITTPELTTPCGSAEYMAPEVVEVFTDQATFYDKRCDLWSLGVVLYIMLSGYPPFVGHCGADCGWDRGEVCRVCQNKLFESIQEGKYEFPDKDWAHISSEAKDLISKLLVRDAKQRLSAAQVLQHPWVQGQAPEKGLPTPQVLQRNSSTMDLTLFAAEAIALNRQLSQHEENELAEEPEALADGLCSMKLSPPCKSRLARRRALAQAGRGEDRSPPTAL
UniProt Q8NEB9, sequence (Q8NEB9 whole entry): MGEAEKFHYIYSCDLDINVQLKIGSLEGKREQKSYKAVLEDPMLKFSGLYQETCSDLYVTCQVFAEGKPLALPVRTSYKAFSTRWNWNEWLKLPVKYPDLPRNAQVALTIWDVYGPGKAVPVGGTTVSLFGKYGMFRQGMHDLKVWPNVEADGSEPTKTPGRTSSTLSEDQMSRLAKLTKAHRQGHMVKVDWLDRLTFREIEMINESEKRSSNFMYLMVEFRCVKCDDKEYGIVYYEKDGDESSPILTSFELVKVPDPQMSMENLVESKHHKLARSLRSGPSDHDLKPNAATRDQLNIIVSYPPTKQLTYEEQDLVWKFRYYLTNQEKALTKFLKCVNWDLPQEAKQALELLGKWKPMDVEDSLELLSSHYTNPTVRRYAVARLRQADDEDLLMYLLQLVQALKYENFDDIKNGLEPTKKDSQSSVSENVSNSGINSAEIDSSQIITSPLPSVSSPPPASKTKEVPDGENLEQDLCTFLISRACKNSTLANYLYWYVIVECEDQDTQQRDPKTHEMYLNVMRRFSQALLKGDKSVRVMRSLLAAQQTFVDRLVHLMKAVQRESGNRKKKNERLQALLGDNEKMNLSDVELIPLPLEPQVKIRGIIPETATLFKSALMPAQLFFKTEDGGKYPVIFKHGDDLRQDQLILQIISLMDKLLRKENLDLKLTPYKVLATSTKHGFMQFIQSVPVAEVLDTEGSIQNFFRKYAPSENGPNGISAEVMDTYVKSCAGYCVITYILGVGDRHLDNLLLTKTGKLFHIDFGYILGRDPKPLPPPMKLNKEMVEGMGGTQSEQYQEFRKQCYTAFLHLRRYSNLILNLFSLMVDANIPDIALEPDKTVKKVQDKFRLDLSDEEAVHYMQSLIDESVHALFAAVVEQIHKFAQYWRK
TAOK3, sequence (Q9H2K8 whole entry, looked up): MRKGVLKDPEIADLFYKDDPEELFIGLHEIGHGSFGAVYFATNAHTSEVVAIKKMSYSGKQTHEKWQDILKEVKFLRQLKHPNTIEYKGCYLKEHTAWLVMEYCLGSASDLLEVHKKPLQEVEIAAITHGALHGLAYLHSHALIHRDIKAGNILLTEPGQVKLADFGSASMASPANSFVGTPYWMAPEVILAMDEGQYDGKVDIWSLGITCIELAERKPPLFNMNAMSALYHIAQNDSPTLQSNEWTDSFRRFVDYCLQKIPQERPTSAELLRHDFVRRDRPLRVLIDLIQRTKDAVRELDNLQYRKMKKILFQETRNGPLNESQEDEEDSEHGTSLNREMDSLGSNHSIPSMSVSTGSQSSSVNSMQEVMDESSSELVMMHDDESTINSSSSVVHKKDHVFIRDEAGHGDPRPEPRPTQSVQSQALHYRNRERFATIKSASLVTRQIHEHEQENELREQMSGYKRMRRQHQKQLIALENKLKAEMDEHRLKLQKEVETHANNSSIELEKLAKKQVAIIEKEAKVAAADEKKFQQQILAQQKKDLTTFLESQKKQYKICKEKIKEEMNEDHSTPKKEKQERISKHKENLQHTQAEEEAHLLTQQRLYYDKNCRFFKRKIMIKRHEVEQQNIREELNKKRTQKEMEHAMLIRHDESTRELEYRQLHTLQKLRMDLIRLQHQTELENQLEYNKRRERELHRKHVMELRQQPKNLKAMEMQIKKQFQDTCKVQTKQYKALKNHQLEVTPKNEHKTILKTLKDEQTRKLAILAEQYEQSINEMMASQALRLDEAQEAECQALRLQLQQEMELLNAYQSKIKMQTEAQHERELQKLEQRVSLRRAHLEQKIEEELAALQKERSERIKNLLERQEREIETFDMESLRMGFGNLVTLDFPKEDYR

pIC50 (UniProt Q9NSY1): < 4.52 | pIC50 (ILK): < 4.52 | pIC50 (UniProt P52564): < 4.52 | pIC50 (PRKCB): < 4.52 | pIC50 (UniProt Q8NEB9): < 4.52 | pIC50 (NEK3): < 4.52 | pIC50 (SRC): < 4.52 | pIC50 (UniProt Q9BUB5): < 4.52 | pIC50 (TAOK3): 5.79 ± 0.13 | pIC50 (UniProt O00444): < 4.52 | pIC50 (DDR1): < 4.52
SMILES: CCc1cnn2c(NCc3ccc[n+]([O-])c3)cc(N3CCCC[C@H]3CCO)nc12 [dinaciclib]
